# Measured values published in BindingDB's records for doi:10.1021/jm070643q (Universit&#224, 2007).
# Target: beta-lactamase AmpC (Escherichia coli) (UniProt P00811)
# Test: Inhibition of Escherichia coli beta-lactamase
# Sequence of beta-lactamase AmpC (Escherichia coli) (P00811 whole entry, looked up): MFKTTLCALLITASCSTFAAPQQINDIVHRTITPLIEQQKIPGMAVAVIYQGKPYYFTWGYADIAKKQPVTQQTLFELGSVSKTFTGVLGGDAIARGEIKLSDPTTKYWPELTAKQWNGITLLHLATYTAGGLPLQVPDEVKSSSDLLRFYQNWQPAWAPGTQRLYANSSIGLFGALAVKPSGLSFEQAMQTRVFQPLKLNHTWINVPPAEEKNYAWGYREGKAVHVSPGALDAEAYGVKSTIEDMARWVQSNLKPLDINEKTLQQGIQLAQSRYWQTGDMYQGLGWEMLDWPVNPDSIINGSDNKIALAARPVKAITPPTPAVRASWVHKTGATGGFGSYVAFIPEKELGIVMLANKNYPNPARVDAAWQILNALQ
row,SMILES,Ki [nM]
1,Cc1ccc2sc(B(O)O)cc2c1 [5-methyl-benzo[b]thiophen-2-ylboronic acid],30
2,OB(O)c1cc2cc(Cn3ccnc3)ccc2s1 [5-imidazol-1-yl-methylbenzo[b]thiophen-2-ylboronic acid],82
3,O=CNCc1ccc2sc(B(O)O)cc2c1 [5-formylaminomethylbenzo[b]thiophen-2-ylboronic acid],450
